Drawing on DBAASP, this text covers MIC for five compounds.

Converted amounts (≈) assume the structure as drawn.

Assay in all cases: ≥ marks a high value that may be exact or a test limit, other limits are often not marked, values filed in µg/mL are converted to µM
Experiment [1] has as its system Candida albicans 3153A.
The subject of experiment [2] is Escherichia coli O157:H7.
Experiment [3] relates to Staphylococcus aureus 1056.
Experiment [4] relates to Bacillus licheniformis X39.
For experiment [5], the system named is Candida albicans ATCC 10231.
In experiment [6] the test system is Enterococcus faecalis 981.
Experiment [7] concerns Escherichia coli ATCC 25922.
Experiment [8] concerns Psychrobacter faecalis X29.
Experiment [9] deals with Rhodococcus rhodochrous X15.
Experiment [10] relates to Serratia rubidaea X01.
Experiment [11] deals with Staphylococcus aureus ATCC 25923.
In experiment [12] the test system is Staphylococcus carnosus KHS.
The subject of experiment [13] is Carnobacterium maltaromaticum UI49.
The subject of experiment [14] is Lacticaseibacillus casei NCDO 2713.
In experiment [15] the test system is Lacticaseibacillus casei subsp. casei NCDO 161.
In experiment [16] the test system is Lactiplantibacillus plantarum UI50.
The test system of experiment [17] is Latilactobacillus curvatus 89.
Experiment [18] relates to Latilactobacillus sakei 706.
In experiment [19] the test system is Latilactobacillus sakei NCDO 2714.
In experiment [20] the test system is Pediococcus acidilactici CH.
For experiment [21], the system named is Pediococcus pentosaceus NCDO 990.
In experiment [22] the test system is Pediococcus pentosaceus Pac1.0.
For experiment [23], the system named is Weissella viridescens NCDO 1655.
Experiment [24] concerns Escherichia coli.
Experiment [25] has as its system Micrococcus luteus.
Experiment [26] concerns Pseudomonas haemolytica.
Experiment [27] relates to Pseudomonas aeruginosa 1.50.
The test system of experiment [28] is Staphylococcus aureus ATCC 2592.

As a reminder, the MIC is the lowest concentration found to suppress growth. A high value points to a less susceptible organism. As to `CC[C@H](C)[C@H](NC(=O)[C@H](CC(N)=O)NC(=O)[C@H](CCCCN)NC(=O)[C@@H]1CSSC[C@@H]2NC(=O)[C@H](CCCCN)NC(=O)[C@H](CC(C)C)NC(=O)[C@H](Cc3ccccc3)NC(=O)CNC(=O)[C@@H]3CSSC[C@H](NC(=O)[C@H](CCCCN)NC(=O)CNC(=O)[C@H](CO)NC(=O)[C@H](C(C)C)NC(=O)[C@H](C(C)C)NC(=O)[C@H](Cc4ccccc4)NC(=O)[C@@H]4CCCN4C(=O)[C@H](Cc4ccccc4)NC(=O)[C@H](CO)NC2=O)C(=O)N[C@@H](CO)C(=O)N[C@@H](CCCN=C(N)N)C(=O)N[C@@H](Cc2ccccc2)C(=O)N[C@@H](Cc2ccccc2)C(=O)N[C@@H](Cc2ccccc2)C(=O)N[C@@H](CSSC[C@H](NC(=O)[C@H](CCC(=O)O)NC(=O)[C@H](C)NC(=O)[C@H](CCCCN)NC(=O)[C@H](CC(N)=O)NC(=O)CNC(=O)[C@@H]2CCCN2C(=O)[C@H](C)N)C(=O)N[C@@H](CCC(=O)O)C(=O)N[C@@H](CCCN=C(N)N)C(=O)N[C@@H](CCC(=O)O)C(=O)N[C@@H](CCCCN)C(=O)NCC(=O)N[C@@H](Cc2ccc(O)cc2)C(=O)N3)C(=O)N1)C(=O)N[C@@H](Cc1c[nH]c2ccccc12)C(=O)O` [APGNKAECEREKGYCGFLKCSFPFVVSGKCSRFFFCCKNIW], the MIC in experiment [1] stood at 1.32 µM (≈ 6.19 µg/mL); in experiment [2], 0.205 µM (≈ 0.959 µg/mL); in [3] it was 0.267 µM (≈ 1.25 µg/mL).

For the compound `CC[C@H](C)[C@H](NC(=O)[C@H](CCCCN)NC(=O)[C@@H]1CCCN1C(=O)[C@H](CC(C)C)NC(=O)[C@H](Cc1ccccc1)NC(=O)[C@H](CC(N)=O)NC(=O)[C@H](C)NC(=O)[C@H](C)NC(=O)[C@H](CC(C)C)NC(=O)CNC(=O)[C@H](C)NC(=O)[C@@H](NC(=O)[C@@H](NC(=O)[C@@H]1CCCN1C(=O)[C@H](CC(C)C)NC(=O)[C@@H](N)Cc1ccccc1)[C@@H](C)CC)C(C)C)C(=O)N[C@H](C(=O)N[C@H]1CSSC[C@@H](C(=O)O)NC(=O)[C@H](CCCCN)NC(=O)[C@H](CCCCN)NC(=O)[C@H]([C@@H](C)O)NC(=O)[C@H]([C@@H](C)CC)NC(=O)[C@H](CCCCN)NC1=O)C(C)C` [FLPIVAGLAANFLPKIVCKITKKC], the MIC stood at 9 µM (≈ 23.3 µg/mL) in experiment [4]; 150 µM (≈ 388 µg/mL) in experiment [5]; 19 µM (≈ 49.1 µg/mL) in [6]; 150 µM (≈ 388 µg/mL) in experiment [7]; 19 µM (≈ 49.1 µg/mL) in [8]; 1.2 µM (≈ 3.1 µg/mL) in [9]. Further, the minimum inhibitory concentration (MIC) in [10] worked out at 19 µM (≈ 49.1 µg/mL); in [11] it was 9 µM (≈ 23.3 µg/mL); in experiment [12], 9 µM (≈ 23.3 µg/mL).

On to `CC[C@H](C)[C@H](NC(=O)[C@H](C)NC(=O)[C@H](CCCNC(=N)N)NC(=O)CNC(=O)[C@H](C)NC(=O)[C@H](CCC(=O)O)NC(=O)CNC(=O)[C@H](CC(=O)O)NC(=O)[C@H](Cc1ccc(O)cc1)NC(=O)[C@H](Cc1ccccc1)NC(=O)CNC(=O)[C@H](CCCCN)NC(=O)[C@H](CCCNC(=N)N)NC(=O)[C@H](CC(C)C)NC(=O)[C@H](CO)NC(=O)[C@H](CO)NC(=O)[C@H](Cc1c[nH]c2ccccc12)NC(=O)[C@H](Cc1ccccc1)NC(=O)[C@H](CC(N)=O)NC(=O)[C@H](CCCCN)NC(=O)[C@H](Cc1c[nH]c2ccccc12)NC(=O)[C@H](C)NC(=O)CN)C(=O)N[C@@H](CCCNC(=N)N)C(=O)N[C@@H](CCCNC(=N)N)C(=O)O` [GAWKNFWSSLRKGFYDGEAGRAIRR], for which the minimal inhibitory concentration (MIC) in experiment [13], in experiment [14], in experiment [15], in experiment [16], in [17] and in experiment [18] was 0.4 µM (≈ 1.17 µg/mL) in each case. For the same compound, the MIC was determined as 0.05 µM (≈ 0.146 µg/mL) in experiment [19]; 0.4 µM (≈ 1.17 µg/mL) in experiment [20]; 0.4 µM (≈ 1.17 µg/mL) in experiment [21]; 0.05 µM (≈ 0.146 µg/mL) in experiment [22]; 5 nM (≈ 0.0146 µg/mL) in [23].

Take `CC[C@H](C)[C@H](NC(=O)CNC(=O)[C@H](CO)NC(=O)[C@H](C)NC(=O)[C@H](CC(C)C)NC(=O)[C@H](CC(=O)O)NC(=O)CNC(=O)[C@H](C)NC(=O)[C@H](C)NC(=O)[C@H](CO)NC(=O)[C@H](CCCCN)NC(=O)[C@@H](NC(=O)[C@H](CCCCN)NC(=O)[C@H](CCC(N)=O)NC(=O)[C@H](Cc1c[nH]c2ccccc12)NC(=O)[C@H](CC(C)C)NC(=O)CN)[C@@H](C)CC)C(=O)N[C@H](C(=O)N[C@@H](CCC(=O)O)C(=O)N[C@@H](C)C(=O)N[C@H](C(=O)N[C@@H](CCCCN)C(=O)N[C@@H](CO)C(N)=O)[C@@H](C)CC)C(C)C` [GLWQKIKSAAGDLASGIVEAIKS]: the minimum inhibitory concentration (MIC) in experiment [24] turned out to be 21.3 µM (≈ 50 µg/mL); in [25] it was 2.56 µM (≈ 6 µg/mL); in experiment [26] it was 0.171 µM (≈ 0.4 µg/mL).

Turning to `CC[C@H](C)[C@H](NC(=O)CNC(=O)[C@@H](NC(=O)CNC(=O)[C@H](C)NC(=O)CNC(=O)[C@H](CCCN=C(N)N)NC(=O)[C@H](C)NC(=O)[C@@H](NC(=O)CNC(=O)[C@H](CC(C)C)NC(=O)[C@H](C)NC(=O)[C@@H](NC(=O)[C@H](CC(N)=O)NC(=O)[C@H](CCCCN)NC(=O)[C@@H](NC(=O)[C@H](CCCCN)NC(=O)[C@H](CC(=O)O)NC(=O)[C@H](CC(C)C)NC(=O)[C@@H](NC(=O)[C@@H](N)CO)[C@@H](C)CC)[C@@H](C)CC)C(C)C)C(C)C)[C@@H](C)O)C(=O)N[C@@H](CC(C)C)C(=O)N[C@@H](CCCCN)C(=O)N[C@@H](C)C(=O)N[C@@H](CC(C)C)C(=O)N[C@@H](CC(C)C)C(=O)N[C@H]1CSSC[C@@H](C(=O)O)NC(=O)[C@H](CO)NC(=O)[C@H](CCCCN)NC(=O)[C@H](CC(=O)O)NC(=O)[C@H](CC(C)C)NC(=O)[C@H](CCCCN)NC1=O` [SILDKIKNVALGVARGAGTGILKALLCKLDKSC], the minimal inhibitory concentration (MIC) in [4] was 3.8 µM (≈ 12.8 µg/mL); in experiment [7], 30 µM (≈ 101 µg/mL); in experiment [27], 30 µM (≈ 101 µg/mL); in experiment [8], 1.9 µM (≈ 6.4 µg/mL); in experiment [9] it was 1.9 µM (≈ 6.4 µg/mL); in [10], not below 60 µM. Moreover, the MIC stood at 3.8 µM (≈ 12.8 µg/mL) in [28] and 1.9 µM (≈ 6.4 µg/mL) in experiment [12].
